Paper PMC6044830 (ACS Omega, 2017)

Target: PDE4D2 (Homo sapiens, UniProt Q08499)
Assay: PDE4D2 assay
Format: biochemical
Settings: read-out: PDE4D2 (IC50); human recombinant PDE4D2, catalytic domain

Sequence of PDE4D2 (Q08499 381-740): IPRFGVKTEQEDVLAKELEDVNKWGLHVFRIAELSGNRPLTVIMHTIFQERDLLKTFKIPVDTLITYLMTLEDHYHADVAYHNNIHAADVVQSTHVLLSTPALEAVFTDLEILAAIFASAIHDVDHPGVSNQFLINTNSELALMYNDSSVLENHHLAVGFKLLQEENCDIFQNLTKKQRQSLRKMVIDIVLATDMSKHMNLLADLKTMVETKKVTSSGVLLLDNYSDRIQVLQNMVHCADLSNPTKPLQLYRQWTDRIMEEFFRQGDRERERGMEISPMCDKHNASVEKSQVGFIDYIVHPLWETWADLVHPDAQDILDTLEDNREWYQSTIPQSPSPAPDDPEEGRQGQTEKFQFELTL

SMILES | IC50 [nM]
OCc1ccc2c(c1C#Cc1ccc(O)cc1)C(c1ccc(O)cc1)(c1ccc(O)cc1)c1cc(O)ccc1-2 [Compound 3, selaginpulvilin A] | 240 ± 40
Cc1ccc(-c2ccc(O)cc2)c(C(=C2C=CC(=O)C=C2)c2ccc(O)cc2)c1C#Cc1ccc(O)cc1 [Compound 8, selaginellin B] | 140 ± 16
